Experimental findings from ChEMBL document CHEMBL5346895, “Small molecule inhibitors of intestinal epithelial anion exchanger SLC26A3 (DRA) with a luminal, extracellular site of action” (Eur J Med Chem, 2023) are described below.

One experiment deals with T1, Pendrin (Homo sapiens) (UniProt O43511).
T1 sequence (whole entry): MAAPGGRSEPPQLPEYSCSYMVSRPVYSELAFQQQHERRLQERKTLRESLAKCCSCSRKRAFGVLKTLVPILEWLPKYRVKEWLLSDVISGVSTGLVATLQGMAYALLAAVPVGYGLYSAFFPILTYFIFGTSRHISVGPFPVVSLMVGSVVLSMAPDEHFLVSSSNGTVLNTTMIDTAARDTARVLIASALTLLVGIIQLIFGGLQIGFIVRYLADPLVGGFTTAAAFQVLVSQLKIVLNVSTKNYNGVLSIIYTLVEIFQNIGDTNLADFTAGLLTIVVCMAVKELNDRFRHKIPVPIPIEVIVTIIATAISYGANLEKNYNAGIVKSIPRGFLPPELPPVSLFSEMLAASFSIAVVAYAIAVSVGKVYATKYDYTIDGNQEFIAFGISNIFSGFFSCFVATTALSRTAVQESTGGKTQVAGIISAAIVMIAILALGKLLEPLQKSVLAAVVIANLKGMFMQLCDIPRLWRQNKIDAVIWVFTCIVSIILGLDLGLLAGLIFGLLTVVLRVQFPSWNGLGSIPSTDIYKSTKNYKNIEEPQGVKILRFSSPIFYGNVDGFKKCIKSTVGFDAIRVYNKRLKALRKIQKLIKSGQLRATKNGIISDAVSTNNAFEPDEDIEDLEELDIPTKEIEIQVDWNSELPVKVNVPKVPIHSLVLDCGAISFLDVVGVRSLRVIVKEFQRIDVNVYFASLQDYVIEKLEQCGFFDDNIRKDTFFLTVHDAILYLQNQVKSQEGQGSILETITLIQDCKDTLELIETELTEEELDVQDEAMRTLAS
Briefly: Inhibition of SLC26A4 (unknown origin) at 10 uM by YFP-based assay relative to control.

The target of experiment [1] is T2, Anoctamin-1 (Homo sapiens) (UniProt Q5XXA6).
T2 sequence (whole entry): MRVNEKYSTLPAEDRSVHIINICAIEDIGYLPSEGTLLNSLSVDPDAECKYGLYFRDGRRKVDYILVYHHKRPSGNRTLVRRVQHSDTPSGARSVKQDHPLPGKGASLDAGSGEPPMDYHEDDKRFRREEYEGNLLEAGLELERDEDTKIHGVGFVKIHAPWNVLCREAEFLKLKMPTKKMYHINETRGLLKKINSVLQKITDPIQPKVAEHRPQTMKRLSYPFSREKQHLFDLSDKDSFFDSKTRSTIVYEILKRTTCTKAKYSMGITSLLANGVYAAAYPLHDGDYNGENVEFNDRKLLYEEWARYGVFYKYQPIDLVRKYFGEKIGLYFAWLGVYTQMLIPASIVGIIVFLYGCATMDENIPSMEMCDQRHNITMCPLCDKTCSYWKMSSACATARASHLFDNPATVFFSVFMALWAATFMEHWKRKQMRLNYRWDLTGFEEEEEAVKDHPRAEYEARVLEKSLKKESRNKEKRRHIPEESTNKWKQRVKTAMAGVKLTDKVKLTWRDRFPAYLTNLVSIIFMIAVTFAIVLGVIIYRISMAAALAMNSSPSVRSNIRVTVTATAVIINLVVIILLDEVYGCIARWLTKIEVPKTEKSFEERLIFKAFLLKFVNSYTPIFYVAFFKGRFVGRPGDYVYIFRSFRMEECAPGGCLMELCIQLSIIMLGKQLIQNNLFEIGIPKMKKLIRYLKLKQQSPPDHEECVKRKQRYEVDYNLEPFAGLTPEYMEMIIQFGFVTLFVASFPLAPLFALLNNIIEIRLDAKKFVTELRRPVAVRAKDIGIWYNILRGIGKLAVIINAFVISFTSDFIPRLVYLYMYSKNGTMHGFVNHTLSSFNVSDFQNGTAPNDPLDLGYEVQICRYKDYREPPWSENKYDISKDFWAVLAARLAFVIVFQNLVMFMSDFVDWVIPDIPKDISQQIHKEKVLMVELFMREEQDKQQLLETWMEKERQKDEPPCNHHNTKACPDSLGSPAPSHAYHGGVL
Briefly: Inhibition of TMEM16A (unknown origin) at 10 uM by YFP-based assay relative to control.

For experiment [2], the target named is Cystic fibrosis transmembrane conductance regulator (Homo sapiens) (UniProt P13569). Put plainly: Inhibition of CFTR (unknown origin) at 10 uM by YFP-based assay relative to control.
Sequence of Cystic fibrosis transmembrane conductance regulator (Homo sapiens) (P13569 whole entry, looked up): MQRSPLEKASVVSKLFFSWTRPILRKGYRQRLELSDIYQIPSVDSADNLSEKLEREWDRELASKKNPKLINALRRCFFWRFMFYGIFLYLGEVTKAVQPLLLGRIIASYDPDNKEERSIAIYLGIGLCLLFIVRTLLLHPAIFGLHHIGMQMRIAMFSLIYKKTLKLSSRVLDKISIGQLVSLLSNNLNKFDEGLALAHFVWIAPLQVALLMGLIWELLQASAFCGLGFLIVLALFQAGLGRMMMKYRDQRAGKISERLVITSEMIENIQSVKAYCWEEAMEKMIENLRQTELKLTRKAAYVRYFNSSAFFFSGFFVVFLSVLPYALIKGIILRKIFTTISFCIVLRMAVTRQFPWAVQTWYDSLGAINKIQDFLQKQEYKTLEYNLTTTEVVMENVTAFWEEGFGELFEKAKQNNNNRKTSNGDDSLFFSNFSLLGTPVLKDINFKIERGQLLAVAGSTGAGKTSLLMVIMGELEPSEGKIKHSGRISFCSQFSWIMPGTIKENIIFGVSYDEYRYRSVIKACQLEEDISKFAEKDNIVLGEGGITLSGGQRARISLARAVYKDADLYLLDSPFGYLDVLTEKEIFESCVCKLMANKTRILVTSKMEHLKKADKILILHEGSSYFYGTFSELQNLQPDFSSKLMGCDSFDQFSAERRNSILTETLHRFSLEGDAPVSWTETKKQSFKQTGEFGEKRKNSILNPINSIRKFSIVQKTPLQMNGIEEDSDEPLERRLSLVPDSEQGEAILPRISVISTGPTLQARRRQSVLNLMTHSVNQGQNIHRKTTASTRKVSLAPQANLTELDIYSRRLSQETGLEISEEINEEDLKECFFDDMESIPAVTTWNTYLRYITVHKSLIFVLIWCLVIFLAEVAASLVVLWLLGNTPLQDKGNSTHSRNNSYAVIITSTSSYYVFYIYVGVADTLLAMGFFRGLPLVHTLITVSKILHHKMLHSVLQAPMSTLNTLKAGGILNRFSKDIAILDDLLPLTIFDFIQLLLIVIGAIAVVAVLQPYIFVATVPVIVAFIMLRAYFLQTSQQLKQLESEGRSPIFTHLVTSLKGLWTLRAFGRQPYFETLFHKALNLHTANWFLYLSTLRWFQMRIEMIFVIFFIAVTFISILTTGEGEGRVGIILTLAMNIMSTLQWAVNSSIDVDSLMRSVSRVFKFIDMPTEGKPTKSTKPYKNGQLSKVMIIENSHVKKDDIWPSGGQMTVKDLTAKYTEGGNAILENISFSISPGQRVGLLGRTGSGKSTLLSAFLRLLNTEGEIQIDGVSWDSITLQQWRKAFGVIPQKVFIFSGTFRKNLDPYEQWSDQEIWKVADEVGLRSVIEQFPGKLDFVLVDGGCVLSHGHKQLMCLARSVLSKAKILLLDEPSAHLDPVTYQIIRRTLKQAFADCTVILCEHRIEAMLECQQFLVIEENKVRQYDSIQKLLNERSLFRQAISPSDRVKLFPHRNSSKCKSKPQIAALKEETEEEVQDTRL
In experiment [3] the target is T3, Solute carrier family 26 member 6 (Homo sapiens) (UniProt Q9BXS9).
T3 sequence (whole entry): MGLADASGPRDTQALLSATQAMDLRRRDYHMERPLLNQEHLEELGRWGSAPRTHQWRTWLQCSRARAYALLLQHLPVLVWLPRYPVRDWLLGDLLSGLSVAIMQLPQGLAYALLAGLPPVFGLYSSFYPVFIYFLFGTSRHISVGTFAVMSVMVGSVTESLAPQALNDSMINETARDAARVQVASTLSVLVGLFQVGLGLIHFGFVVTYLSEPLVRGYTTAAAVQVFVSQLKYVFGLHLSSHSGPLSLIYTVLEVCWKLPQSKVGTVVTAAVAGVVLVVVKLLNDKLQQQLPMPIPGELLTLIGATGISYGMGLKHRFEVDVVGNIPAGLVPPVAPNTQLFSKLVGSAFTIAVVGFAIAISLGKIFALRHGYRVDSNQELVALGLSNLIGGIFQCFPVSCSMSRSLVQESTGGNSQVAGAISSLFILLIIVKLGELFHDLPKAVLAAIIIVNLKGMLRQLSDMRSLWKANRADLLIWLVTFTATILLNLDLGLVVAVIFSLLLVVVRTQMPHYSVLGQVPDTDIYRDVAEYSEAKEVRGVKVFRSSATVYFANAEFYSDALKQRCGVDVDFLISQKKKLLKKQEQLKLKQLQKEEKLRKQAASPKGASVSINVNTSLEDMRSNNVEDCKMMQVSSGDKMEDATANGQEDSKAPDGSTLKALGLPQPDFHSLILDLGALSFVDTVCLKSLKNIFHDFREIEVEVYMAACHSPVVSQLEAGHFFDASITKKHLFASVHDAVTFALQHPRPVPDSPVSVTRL
Put plainly: Inhibition of SLC26A6 (unknown origin) at 10 uM by YFP-based assay relative to control.

In general, inhibition refers to the drop in the measured response relative to a control, in per cent. Turning to `Cc1ccccc1COc1ccc2oc(-c3ccccc3)c(C(=O)O)c2c1`, the inhibition on Pendrin (Homo sapiens) is -13%; in experiment [1], 2%; in experiment [2], 12%; in experiment [3], 37%.
Taken in the same sequence, the figures for `Cc1cc(C)cc(N(C)S(=O)(=O)c2nnc(NC(=O)COc3ccc(C)c(C)c3)s2)c1` were 17%, 83%, 5% and 32%.
Taken in the same sequence, the figures for `O=C(Nc1cccc(-c2nc3ccccc3c(=O)o2)c1)c1ccc(Cl)cc1` were -3%, -1%, -2% and 4%.
Turning to `O=c1cc(COc2ccccc2Cl)nc2scc(-c3ccccc3)n12`, the inhibition in experiment [1] was 4%; in experiment [2], 4%; in experiment [3], 9%.
